These results are taken from patent publication EP2246037A2, “Anti-aging and whitening properties of quercetin, 18a-glycyrrhetinic acid, hederagenin and its derivatives” (Korres S.A. Natural Products, priority 2009, dated 2010).

Entries after “also recorded” stand apart in the source; their conditions may differ.

Assay [1] relates to HFL-1 HDFs. Nature of the assay: Levels of oxidized (carbonylated) proteins, OxyBlot analysis. Type of assay: cell-based, human. The note with it: 24 h treatment, versus relative control cells.
Assay [2] has as its system HFL-1 human diploid fibroblasts. Description: β-galactosidase activity staining of continuously treated fibroblasts. Type of assay: cell-based. As for the experimental part:
The steps, methods and results that were obtained regarding the anti-aging properties of the examined substances are the following: • 1) Study of the lifespan of human diploid fibroblasts in vitro in the presence of the substances. • 1.1. HFL-1 human diploid fibroblasts (HDFs) were used in in vitro conditions (growth at 37°C, 5% CO2 and 95% humidity). • 1.2. The cells were maintained in Dulbecco's modified Eagle's medium (DMEM ®; Invitrogen Life Technologies Inc.) supplemented with 10% (v/v) fetal calf serum, 100 Units/ml penicillin, 100 µg/ml strepromycin, 2 mM glutamine and 1% (v/v) non-essential amino acids (complete medium). • 1.3. The cells were constantly cultured in culture medium supplemented with the substances [final concentration for quercetin (QUER), 18α-glycyrrhetinic acid (18α GA), and hederagenin (HED): 2 µg/ml and for quercetin caprylate (QU-CAP) three concentrations were applied: 0.5, 2 and 5 µg/ml]. Quercetin, 18α-glycyrrhetinic acid and hederagenin were diluted in DMSO (dimethyl sulfoxide) whereas quercetin caprylate was diluted in caprilic/capric triglycerides (CAP). Therefore, the control cultures were incubated in medium supplemented with 0.1% DMSO or 0.1% CAP. • 1.4. The cells were replenished with fresh media supplemented with the substances or the diluents every 24 h and their numbers were examined using a Coulter Z2 ® counter (Coulter Corporation) until they reached senescence (approximately after 13 weeks). The cumulative population doublings performed by each culture were calculated using the following formula: CPD=Σ[PD] where PD=LOG[Nfinal/Ninitial]/LOG[2], where N final represents the number of cells that were measured when each culture reached confluence and N initial represents the number of cells that was initially seeded. • 1.5. Photographs of the cells maintained in cell culture and treated with the various substances for the same time period were taken. • 1.6. […] More specifically, cells that were incubated with quercetin caprylate gave up to 2.8% more population doublings as compared to the population doublings performed by the relative control cultures. Cells that were incubated with the other substances gave up to 2.9% more population doublings as compared to their relative control cultures. • 1.7. […] Cells that were treated with either of the tested substances maintained the young morphology for longer as compared to the control cultures (DMSO-treated and CAP-treated). […] Briefly, 10^5 cells from each culture were seeded in 6-well plates. After 24 h cells were washed with PBS (phosphate buffered saline), fixed in 0.2% glutaraldehyde and 2% formaldehyde for 5 min, washed again with PBS, and finally stained for 24 h at 37 °C in the absence of CO2, in staining solution (150 mM NaCl, 2 mM MgCl2, 5 mM K3Fe(CN)6, 40 mM citric acid, and 12 mM sodium phosphate, pH 6.0) containing 1 mg/ml 5-bromo-4-chloro-3-indolyl-β-D-galactoside. Photographs were then taken. • 1.3. […] HFL-1 HDFs that have senesced in vitro were used (growth at 37°C, 5% CO2 and 95% humidity). More specifically, middle aged HFL-1 HDFs (cpd 59) and terminally senescent HFL-1 HDFs (cpd 65) that had senesced in the absence of any substance were used. • 3.2. The cells were seeded and maintained in complete medium (see 1.2). Culture medium supplemented with the substances [final concentration for quercetin (QUER), 18α-glycyrrhetinic acid (18α GA), and hederagenin (HED): 2 µg/ml and for quercetin caprylate (QU-CAP) three concentrations were applied: 0.5, 2 and 5 µg/ml] or the diluents (0.1% DMSO or 0.1% CAP) were added 24 h later. The cells were replenished with fresh media supplemented with the substances or the diluents every 24 h for 1 week and their numbers were then examined using a Coulter Z2 ® counter (Coulter Corporation). • 3.3. Detection of β-galactosidase activity was performed in these cells as described above and photographs of the cells following β-galactosidase activity assay were taken. • 3.4. […]

Assay [3] relates to HFL-1 HDFs. Nature of the assay: Cell survival with or without oxidative stress. Type of assay: cell-based, human. The note with it: for higher survival rate as compared to control cultures: 300 µM H2O2 for 2.5 h, then additional 24 h in culture; for survival to an oxidative stress challenge: summary, versus control cells.

As for `CC1(C)[C@@H](O)CC[C@]2(C)[C@H]3C(=O)C=C4[C@H]5C[C@@](C)(C(=O)O)CC[C@]5(C)CC[C@@]4(C)[C@]3(C)CC[C@@H]12` [18α-glycyrrhetinic acid], the “levels of oxidized proteins” value in the assay on HFL-1 HDFs [1] is reported as “slightly lower levels of oxidized carbonylated proteins; also recorded: lower amounts of oxidized proteins”. The “% β-galactosidase positive cells” value in assay [2] (2 µg/ml) worked out at 37.7%. In the assay on HFL-1 HDFs [3], the “higher survival rate as compared to control cultures” value is 2% and the “survival to an oxidative stress challenge” value was “survived better”. Further, the “higher survival rate as compared to diluent-treated cells” value in the assay with HFL-1 HDFs [3] (24 h treatment, no oxidative stress) is 3.5%.

`CC1(C)CC[C@]2(C(=O)O)CC[C@]3(C)C(=CC[C@@H]4[C@@]5(C)CC[C@H](O)[C@@](C)(CO)[C@@H]5CC[C@]43C)[C@@H]2C1` [Hederagenin]: the “% β-galactosidase positive cells” value in assay [2] (2 µg/ml) was 31.8%.

Regarding `O=c1c(O)c(-c2ccc(O)c(O)c2)oc2cc(O)cc(O)c12` [Quercetin], in assay [2] (2 µg/ml), the “% β-galactosidase positive cells” value turned out to be 13.5%. In the assay on HFL-1 HDFs [3], the “higher survival rate as compared to control cultures” value was at most 14.5% and the “survival to an oxidative stress challenge” value is “survived better”.

Regarding quercetin caprylate, the “levels of oxidized proteins” value with HFL-1 HDFs [1] is on record as “less oxidized proteins; also recorded: lower amounts of oxidized proteins”. Further, the figures for the “% β-galactosidase positive cells” value in assay [2] (0,5 µg/ml), in assay [2] (2 µg/ml) and in assay [2] (5 µg/ml) were 36.6%, 32.3% and 47%, respectively. The “higher survival rate as compared to control cultures” value in the assay with HFL-1 HDFs [3] is given as at most 14.5%. Besides, the “survival to an oxidative stress challenge” value with HFL-1 HDFs [3] is reported as “survived better”.
